pIC50: −log10 of the molar value.
System: IL-1b
Assay: Human Monocyte IL-1b Assay
Type: cell-based
Details: Monocyte, fresh human whole blood, compound 0.5 h, 100 ng/mL LPS 3.5 h at 37° C., 5 mM ATP 45 min, IL-1b in supernatant by ELISA
Method: Example 46: Human Monocyte IL-1b Assay
Serially diluted testing compounds were incubated with […] of fresh human whole blood for 0.5 hours. Cells were primed with 100 ng/mL lipopolysaccharide (LPS) for 3.5 hours at 37° C. followed by stimulation with 5 mM ATP for an additional 45 minutes. The concentration of IL-1b concentration in the supernatant was determined with commercially available ELISA kits. Negative controls are wells without stimulation, while positive controls are wells with stimulation but only DMSO without compounds added. After background subtraction, compound treatment wells were then normalized to the positive controls for IC50 calculations.

In the case of `Cc1cc([C@@H](O)C2CN3CCC2CC3)nnc1-c1ccc(C(F)(F)F)cc1O` (stereo partly drawn) [Compound 28B, 2-(6-((1S)-hydroxy(quinuclidin-3-yl)methyl)-4-methylpyridazin-3-yl)-5-(trifluoromethyl)phenol], the pIC50 (Homo sapiens) was 5.52 to 6.30.

For `Cc1cc(C(O)C23CCCN(CC2)C3)nnc1-c1ccc(C(F)(F)F)cc1O` (stereo not shown) [Compound 29, 2-(6-((1-azabicyclo[3.2.1]octan-5-yl)(hydroxy)methyl)-4-methylpyridazin-3-yl)-5-(trifluoromethyl)phenol], the pIC50 was 5.52 to 6.30.

`COc1cc(C(F)(F)F)ccc1-c1nnc(C(O)C2CN(C)C2)cc1C` (stereo not shown) [Compound 30, (6-(2-methoxy-4-(trifluoromethyl)phenyl)-5-methylpyridazin-3-yl)(1-methylazetidin-3-yl)methanol] showed a pIC50 (Homo sapiens) of 5.00 to 5.52.

Compound `Cc1cc(C(O)C2CN(C)C2)nnc1-c1ccc(C(F)(F)F)cc1O` (stereo not shown) [Compound 31, 2-(6-(hydroxy(1-methylazetidin-3-yl)methyl)-4-methylpyridazin-3-yl)-5-(trifluoromethyl)phenol] has a pIC50 (Homo sapiens) of over 6.30.

With `Cc1cc(C(O)C2CCCCN(C)C2)nnc1-c1ccc(C(F)(F)F)cc1O` (stereo not shown) [Compound 32, 2-(6-(hydroxy(1-methylazepan-3-yl)methyl)-4-methylpyridazin-3-yl)-5-(trifluoromethyl)phenol] the pIC50 was over 6.30.

`Cc1cc(C(O)C23CCC(CC2)N(C)C3)nnc1-c1ccc(C(F)(F)F)cc1O` (stereo not shown) [Compound 33, 2-(6-(hydroxy(2-methyl-2-azabicyclo[2.2.2]octan-4-yl)methyl)-4-methylpyridazin-3-yl)-5-(trifluoromethyl)phenol] was tested, and the pIC50 was 5.52 to 6.30.

`Cc1cc(C(O)C2CCC3CCC2N3C)nnc1-c1ccc(C(F)(F)F)cc1O` (stereo not shown) [Compound 34, 2-(6-(hydroxy(8-methyl-8-azabicyclo[3.2.1]octan-2-yl)methyl)-4-methylpyridazin-3-yl)-5-(trifluoromethyl)phenol] gave a pIC50 (Homo sapiens) of over 6.30.

In the case of `Cc1cc(C(O)C23CC(CN(C)C2)C3)nnc1-c1ccc(C(F)(F)F)cc1O` (stereo not shown) [Compound 35, 2-(6-(hydroxy(3-methyl-3-azabicyclo[3.1.1]heptan-1-yl)methyl)-4-methylpyridazin-3-yl)-5-(trifluoromethyl)phenol], the pIC50 (Homo sapiens) was 5.52 to 6.30.

`Cc1cc(C(O)C2CC3CC2N(C)C3)nnc1-c1ccc(C(F)(F)F)cc1O` (stereo not shown) [Compound 36, 2-(6-(hydroxy(2-methyl-2-azabicyclo[2.2.1]heptan-6-yl)methyl)-4-methylpyridazin-3-yl)-5-(trifluoromethyl)phenol] gave a pIC50 of over 6.30.

For `Cc1cc([C@H](O)[C@@H]2CC[C@H]3CCC(=O)N3C2)nnc1-c1ccc(C(F)(F)F)cc1O` [Compound 37, (6R,8aS)-6-((R)-hydroxy(6-(2-hydroxy-4-(trifluoromethyl)phenyl)-5-methylpyridazin-3-yl)methyl)hexahydroindolizin-3(2H)-one], the pIC50 was 5.52 to 6.30.

Work on `Cc1cc(C(O)C2CCC3CCCN3C2)nnc1-c1ccc(C(F)(F)F)cc1O` (stereo not shown) [Compound 38, 2-(6-(hydroxy(octahydroindolizin-6-yl)methyl)-4-methylpyridazin-3-yl)-5-(trifluoromethyl)phenol] yielded a pIC50 (Homo sapiens) of 5.52 to 6.30.

`Cc1cc(C(O)C2CCCCN2C)nnc1-c1ccc(C(F)(F)F)cc1O` (stereo not shown) [Compound 39, 2-(6-(hydroxy(1-methylpiperidin-2-yl)methyl)-4-methylpyridazin-3-yl)-5-(trifluoromethyl)phenol] showed a pIC50 (Homo sapiens) of over 6.30.

`Cc1cc([C@H](O)[C@@H]2CCCNC2)nnc1-c1ccc(C(F)(F)F)cc1O` [Compound 40, 2-(6-((R)-hydroxy((R)-piperidin-3-yl)methyl)-4-methylpyridazin-3-yl)-5-(trifluoromethyl)phenol] was tested, and the pIC50 (Homo sapiens) was over 6.30.

With `Cc1cc([C@H](O)[C@@H]2CCCN(C(C)C)C2)nnc1-c1ccc(C(F)(F)F)cc1O` [Compound 41, 2-(6-((R)-hydroxy((R)-1-isopropylpiperidin-3-yl)methyl)-4-methylpyridazin-3-yl)-5-(trifluoromethyl)phenol] the pIC50 (Homo sapiens) was over 6.30.

For `Cc1cc(C(O)[C@@H]2CCCN(C)C2)nnc1-c1cc(F)c(C(F)(F)F)cc1O` (stereo partly drawn) [Compound 42, 4-fluoro-2-(6-(hydroxy((R)-1-methylpiperidin-3-yl)methyl)-4-methylpyridazin-3-yl)-5-(trifluoromethyl)phenol], the pIC50 (Homo sapiens) was over 6.30.

For `CCN1CCC[C@@H]([C@@H](O)c2cc(C)c(-c3ccc(C(F)(F)F)cc3O)nn2)C1` [Compound 45, 2-(6-((R)-((R)-1-ethylpiperidin-3-yl)(hydroxy)methyl)-4-methylpyridazin-3-yl)-5-(trifluoromethyl)phenol], the pIC50 (Homo sapiens) was over 6.30.

Reference: patent US20230295113A1, “NLRP3 MODULATORS” (ZOMAGEN BIOSCIENCES LTD, priority 2022, published 2023)
